Reference: patent US10617693B2, “Methods of treating and/or preventing actinic keratosis” (Athenex, Inc., priority 2017, dated 2020)

Test system: subjects with AK on the face or scalp
Experiment: Phase 2a study KX01-AK-002: local skin reactions (grade 0 not present to 4 worst) and adverse events, 0.5 mg KX-01 on 25 cm^2
Type: in vivo, human
Source text: An ongoing Phase 2a, open-label, multicenter, activity and safety study of KX-01 administered topically in subjects with AK on the face or scalp is described herein. […] Secondary objectives are to assess the activity of KX-01 administered topically during Days 1-57 based on reduction of AK lesion counts from baseline, assess the safety and tolerability and pharmacokinetics, and contrast the dose regimens (5-day treatment with 3-day treatment) in terms of activity and safety in subjects with AK on the face or scalp. This uncontrolled, nonrandomized trial is being conducted at 16 investigational sites in the United States. Enrollment is sequential for 2 cohorts of approximately 80 subjects each. Enrollment is closed for Cohort 1 and ongoing for Cohort 2. The two treatment cohorts are summarized below: • Cohort 1: 0.5 mg KX-01 administered topically to a contiguous treatment area of 25 cm^2 with 4-8 clinically typical AK lesions for 5 consecutive days • Cohort 2: 0.5 mg KX-01 administered topically to a contiguous treatment area of 25 cm^2 with 4-8 clinically typical AK lesions for 3 consecutive days
0.5 mg KX-01 is administered topically to an area of 25 cm^2 on the face or scalp by site staff on treatment days. […] AK lesion counts are recorded at baseline, days 8, 15, 29, and 57. […] Standardized photography of treatment area is performed at baseline, day 8 and day 57. Plasma samples are being collected at preplanned time points on days 1 and 5 for Cohort 1, and on days 1 and 3 for Cohort 2.
Absence or presence of hyperpigmentation, hypopigmentation and scarring are also assessed. Application site reactions not classified as LSRs are reported as AEs. […] LSRs and AEs are reported separately. All LSRs, pigmentation, and scarring in the treatment area will be followed to resolution or stabilization.
The range of possible composite scores is 0-24.
The Phase 2a trial described in Example 2a was completed with 84 eligible subjects enrolled in each of two cohorts: one cohort was subjected to the treatment for 5 consecutive days, and the other cohort was subjected to the treatment for 3 consecutive days. The results are described below and in FIG. 5.

O=C(Cc1ccc(-c2ccc(OCCN3CCOCC3)cc2)cn1)NCc1ccccc1 [KX-01]
12/67: Erythema grade 1, n/N subjects (Day 57, Cohort 1 (5-day))
2/67: Erythema grade 3, n/N subjects (Day 15, Cohort 1 (5-day)) | Crusting grade 1, n/N subjects (Day 29, Cohort 1 (5-day)) | Flaking/Scaling grade 2, n/N subjects (Day 29, Cohort 1 (5-day)) | Erythema grade 2, n/N subjects (Day 57, Cohort 1 (5-day))
10/67: Flaking/Scaling grade 1, n/N subjects (Day 57, Cohort 1 (5-day))
14/67: Flaking/Scaling grade 1, n/N subjects (Day 15, Cohort 1 (5-day))
66/67: Erosion/Ulceration grade 0, n/N subjects (Day 15, Cohort 1 (5-day)) | Swelling grade 0, n/N subjects (Day 29, Cohort 1 (5-day))
18/67: Erythema grade 1, n/N subjects (Day 29, Cohort 1 (5-day))
63/67: Crusting grade 0, n/N subjects (Day 15, Cohort 1 (5-day)) | Crusting grade 0, n/N subjects (Day 57, Cohort 1 (5-day))
no Grade 4 LSRs were observed: Grade 4 LSRs (after 5 days of treatment, interim)
0: Vesiculation/Pustulation grade 3, n/N subjects (Day 8, Cohort 1 (5-day)) | Vesiculation/Pustulation grade 4, n/N subjects (Day 8, Cohort 1 (5-day)) | Crusting grade 2, n/N subjects (Day 15, Cohort 1 (5-day)) | Crusting grade 3, n/N subjects (Day 15, Cohort 1 (5-day)) | Crusting grade 4, n/N subjects (Day 15, Cohort 1 (5-day)) | Erosion/Ulceration grade 2, n/N subjects (Day 15, Cohort 1 (5-day)) | Erosion/Ulceration grade 3, n/N subjects (Day 15, Cohort 1 (5-day)) | Erosion/Ulceration grade 4, n/N subjects (Day 15, Cohort 1 (5-day)) | Erythema grade 4, n/N subjects (Day 15, Cohort 1 (5-day)) | Flaking/Scaling grade 4, n/N subjects (Day 15, Cohort 1 (5-day)) | Swelling grade 1, n/N subjects (Day 15, Cohort 1 (5-day)) | Swelling grade 2, n/N subjects (Day 15, Cohort 1 (5-day)) | Swelling grade 3, n/N subjects (Day 15, Cohort 1 (5-day)) | Swelling grade 4, n/N subjects (Day 15, Cohort 1 (5-day)) | Vesiculation/Pustulation grade 1, n/N subjects (Day 15, Cohort 1 (5-day)) | Vesiculation/Pustulation grade 2, n/N subjects (Day 15, Cohort 1 (5-day)) | Vesiculation/Pustulation grade 3, n/N subjects (Day 15, Cohort 1 (5-day)) | Vesiculation/Pustulation grade 4, n/N subjects (Day 15, Cohort 1 (5-day)) | Crusting grade 2, n/N subjects (Day 29, Cohort 1 (5-day)) | Crusting grade 3, n/N subjects (Day 29, Cohort 1 (5-day)) | Crusting grade 4, n/N subjects (Day 29, Cohort 1 (5-day)) | Erosion/Ulceration grade 1, n/N subjects (Day 29, Cohort 1 (5-day)) | Erosion/Ulceration grade 2, n/N subjects (Day 29, Cohort 1 (5-day)) | Erosion/Ulceration grade 3, n/N subjects (Day 29, Cohort 1 (5-day)) | Erosion/Ulceration grade 4, n/N subjects (Day 29, Cohort 1 (5-day)) | Erythema grade 3, n/N subjects (Day 29, Cohort 1 (5-day)) | Erythema grade 4, n/N subjects (Day 29, Cohort 1 (5-day)) | Flaking/Scaling grade 4, n/N subjects (Day 29, Cohort 1 (5-day)) | Swelling grade 2, n/N subjects (Day 29, Cohort 1 (5-day)) | Swelling grade 3, n/N subjects (Day 29, Cohort 1 (5-day)) | Swelling grade 4, n/N subjects (Day 29, Cohort 1 (5-day)) | Vesiculation/Pustulation grade 1, n/N subjects (Day 29, Cohort 1 (5-day)) | Vesiculation/Pustulation grade 2, n/N subjects (Day 29, Cohort 1 (5-day)) | Vesiculation/Pustulation grade 3, n/N subjects (Day 29, Cohort 1 (5-day)) | Vesiculation/Pustulation grade 4, n/N subjects (Day 29, Cohort 1 (5-day)) | Crusting grade 2, n/N subjects (Day 57, Cohort 1 (5-day)) | Crusting grade 3, n/N subjects (Day 57, Cohort 1 (5-day)) | Crusting grade 4, n/N subjects (Day 57, Cohort 1 (5-day)) | Erosion/Ulceration grade 1, n/N subjects (Day 57, Cohort 1 (5-day)) | Erosion/Ulceration grade 2, n/N subjects (Day 57, Cohort 1 (5-day)) | Erosion/Ulceration grade 3, n/N subjects (Day 57, Cohort 1 (5-day)) | Erosion/Ulceration grade 4, n/N subjects (Day 57, Cohort 1 (5-day)) | Erythema grade 3, n/N subjects (Day 57, Cohort 1 (5-day)) | Erythema grade 4, n/N subjects (Day 57, Cohort 1 (5-day)) | Flaking/Scaling grade 2, n/N subjects (Day 57, Cohort 1 (5-day)) | Flaking/Scaling grade 3, n/N subjects (Day 57, Cohort 1 (5-day)) | Flaking/Scaling grade 4, n/N subjects (Day 57, Cohort 1 (5-day)) | Swelling grade 1, n/N subjects (Day 57, Cohort 1 (5-day)) | Swelling grade 2, n/N subjects (Day 57, Cohort 1 (5-day)) | Swelling grade 3, n/N subjects (Day 57, Cohort 1 (5-day)) | Swelling grade 4, n/N subjects (Day 57, Cohort 1 (5-day)) | Vesiculation/Pustulation grade 1, n/N subjects (Day 57, Cohort 1 (5-day)) | Vesiculation/Pustulation grade 2, n/N subjects (Day 57, Cohort 1 (5-day)) | Vesiculation/Pustulation grade 3, n/N subjects (Day 57, Cohort 1 (5-day)) | Vesiculation/Pustulation grade 4, n/N subjects (Day 57, Cohort 1 (5-day))
51/67: Flaking/Scaling grade 0, n/N subjects (Day 29, Cohort 1 (5-day))
27/67: Erythema grade 0, n/N subjects (Day 15, Cohort 1 (5-day))
5/67: Flaking/Scaling grade 3, n/N subjects (Day 15, Cohort 1 (5-day))
57/67: Flaking/Scaling grade 0, n/N subjects (Day 57, Cohort 1 (5-day))
13/67: Erythema grade 2, n/N subjects (Day 15, Cohort 1 (5-day)) | Flaking/Scaling grade 1, n/N subjects (Day 29, Cohort 1 (5-day))
45/67: Erythema grade 0, n/N subjects (Day 29, Cohort 1 (5-day))
safe and well tolerated: Safety and tolerability (topically once daily for 5 days)
9/67: Flaking/Scaling grade 2, n/N subjects (Day 15, Cohort 1 (5-day))
4/67: Crusting grade 1, n/N subjects (Day 15, Cohort 1 (5-day)) | Erythema grade 2, n/N subjects (Day 29, Cohort 1 (5-day)) | Crusting grade 1, n/N subjects (Day 57, Cohort 1 (5-day))
53/67: Erythema grade 0, n/N subjects (Day 57, Cohort 1 (5-day))
25/67: Erythema grade 1, n/N subjects (Day 15, Cohort 1 (5-day))
67/67: Swelling grade 0, n/N subjects (Day 15, Cohort 1 (5-day)) | Vesiculation/Pustulation grade 0, n/N subjects (Day 15, Cohort 1 (5-day)) | Erosion/Ulceration grade 0, n/N subjects (Day 29, Cohort 1 (5-day)) | Vesiculation/Pustulation grade 0, n/N subjects (Day 29, Cohort 1 (5-day)) | Erosion/Ulceration grade 0, n/N subjects (Day 57, Cohort 1 (5-day)) | Swelling grade 0, n/N subjects (Day 57, Cohort 1 (5-day)) | Vesiculation/Pustulation grade 0, n/N subjects (Day 57, Cohort 1 (5-day))
65/67: Crusting grade 0, n/N subjects (Day 29, Cohort 1 (5-day))
39/67: Flaking/Scaling grade 0, n/N subjects (Day 15, Cohort 1 (5-day))
1/67: Erosion/Ulceration grade 1, n/N subjects (Day 15, Cohort 1 (5-day)) | Flaking/Scaling grade 3, n/N subjects (Day 29, Cohort 1 (5-day)) | Swelling grade 1, n/N subjects (Day 29, Cohort 1 (5-day))
